Measured values as given in patent publication US20080248008A1, “Inhibitors of Protein Kinase a Anchoring” (priority 2004, published 2008).
Entries after “also recorded” stand apart in the source; their conditions may differ.

Tests used:
RI (A98S) = biological target: T1, RI (A98S) (Bos taurus, UniProt P00514, A98S); experiment: R-overlay (solid-phase binding) of 32P-labelled RI on membrane-synthesized peptides; set-up: species or system bovine
T1 construct: made in house; host or cells: E. coli BL21 (B121 [sic])
T1 sequence (P00514 whole entry A98S): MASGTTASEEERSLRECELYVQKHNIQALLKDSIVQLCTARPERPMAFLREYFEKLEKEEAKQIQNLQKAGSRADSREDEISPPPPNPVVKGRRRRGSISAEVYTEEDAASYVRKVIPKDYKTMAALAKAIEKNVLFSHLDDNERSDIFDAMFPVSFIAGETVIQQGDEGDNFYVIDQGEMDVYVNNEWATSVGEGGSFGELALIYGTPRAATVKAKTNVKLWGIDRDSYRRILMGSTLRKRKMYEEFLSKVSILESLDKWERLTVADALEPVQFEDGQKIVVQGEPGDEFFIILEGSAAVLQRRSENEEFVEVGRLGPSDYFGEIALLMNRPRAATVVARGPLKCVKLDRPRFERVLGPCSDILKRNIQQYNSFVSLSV
Method: Autospot Peptide Array. Peptide arrays were synthesized on cellulose paper by using an Autospot Robot ASP222 (ABiMED, Langenfeld, Germany) as described (Frank, R., 1992, Tetrahedron 48, 123-132) or Multipep automated peptide synthesizer (INTAVIS Bioanalytical Instruments AG, Koeln, Germany) as described (Frank, R., 1992, Tetrahedron 48, 123-132).
R-overlay. R-overlays were conducted as described, using ^32P-labeled recombinant murine RII (Hausken, Z. E., et al., 1998 in Protein Targeting Protocols, ed. Clegg, R. A. (Humana, Totowa, N.J.), Vol. 88, pp. 47-64) or recombinant bovine RI (A98S) or by cold RI-overlay where bound RIα was detected by Western blot. Cold RI-overlay was performed by incubating the membranes with 250 nM RI overnight at 4° C., then the membranes were washed five times in TBST for 5 min. Detection of RI was performed using an anti-RI rabbit polyclonal antibody (Santa Cruz) at a concentration of 0.2 μg/μl for 1 hour at 4° C. Then the membranes were washed five times for 5 minutes in PBS followed by incubation with HRP-conjugated anti-rabbit IgGs (1:5000) for 1 hour at 4° C. The membranes were washed in PBS as described above before detection by Supersignal West Dura Extended Duration Substrate (Pierce).
Densitometric analysis. The densitometric analysis was performed using Scion Image (www.scioncorp.com) (Scion Coorperation, Mo., USA) or Quantity One version 4.5.0, (BioRad).

mice with MAIDS = experiment: T cell proliferative response after in vivo treatment of mice with murine AIDS; conditions: 75 mg/kg/day intraperitoneal, 10 days
Method: Rad-LS infected mice with MAIDS (10-12 weeks postinfection) were treated with MEME3-Arg11 in doses corresponding to those used for other bioactive peptides in studies in mice. Parenteral administration was accomplished by injecting intraperitoneally peptide formulated in PBS. Thus, MAIDS mice were injected with vehicle (phosphate buffered saline, PBS, Ctr.) or treated with MEME3-Arg11 in PBS (M3) by intraperitoneal injection (75 mg/kg/day administered once daily) for 10 days (left panel). In parallel, healthy, uninfected mice were injected with PBS (Ctr.) or MEME3-Arg11 in PBS (M3) (right panel). Subsequently, T cell proliferative responses were assessed in vitro in a mixed population of unsorted lymph node mononuclear cells from treated and untreated animals by [^3H]-thymidine incorporation. T cell activation was accomplished in all samples by cross-ligation of anti-CD3 (mAb 2C11; 4 µg/ml). Cells were cultured for 72 h during which MEME3-Arg11 was added back. [^3H]-thymidine was included for the last 4 hours.

PKA-RIIα = PKA-RIIα (Homo sapiens, UniProt P13861); experiment: Displacement of PKA-RII from the particulate fraction in T cells; format: cell-based; set-up: endogenous in cells; host or cells: human peripheral blood CD3+ T cells; conditions: increasing concentrations, relative to PKCα
PKA-RIIα, sequence (P13861 whole entry): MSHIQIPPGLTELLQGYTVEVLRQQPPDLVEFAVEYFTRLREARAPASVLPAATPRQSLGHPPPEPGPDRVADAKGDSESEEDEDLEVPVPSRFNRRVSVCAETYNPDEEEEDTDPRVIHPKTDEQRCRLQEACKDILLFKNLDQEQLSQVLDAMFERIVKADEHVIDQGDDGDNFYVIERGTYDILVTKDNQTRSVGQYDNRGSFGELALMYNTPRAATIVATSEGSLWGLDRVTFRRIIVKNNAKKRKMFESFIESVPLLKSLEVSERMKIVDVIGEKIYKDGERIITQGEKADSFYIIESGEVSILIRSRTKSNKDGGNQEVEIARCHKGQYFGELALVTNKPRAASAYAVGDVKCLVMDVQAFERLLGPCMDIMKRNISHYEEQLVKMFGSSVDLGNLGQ
Method: Displacement of PKA-RII from the particulate Fraction in T-cells. Negatively selected CD3^+ T-cells (20×10^6/3 ml/well) were cultured in 6-well plates with 0-50 μM Arg11-SuperAKAPIS (or 0-50 μM M3-Arg11) for 12 hours. Cells were lysed in 250 μl lysis buffer (50 mM Tris pH 7.4, 100 mM NaCl, 5 mM EDTA, 50 mM NaF, 10 mM Na-pyrofosfat, 1 mM Na3VO4, 1 mM PMSF, 0.7% triton X-100) and centrifuged at 14 000×g for 10 min. The sedimented proteins were resuspended in loading dye before being resolved by SDS/PAGE and detected by immunoblotting.
To assess the effect of MEME3-Arg11 on anchoring of PKA type II, T cells were treated with MEME3-Arg11 or Arg11-super-AKAP-is (as a positive control) and particulate fractions were isolated, followed by 10% PAGE and blotting onto a PVDF membrane (fraction no. 2-4, FIG. 17 in upper panel) and analysed by immunoblotting using antibodies against PKA-RIIα (FIG. 17, upper panel). The levels of PKA-RIIα in the particulate fractions were measured by densitometry of the autoradiograms (lower panel). The level of PKA-RIIα was set relative to that of the internal standard PKCα.

[1] = biological target: T2, membrane localized RI in Jurkat T cells (Homo sapiens, UniProt P10644); experiment: Immunofluorescence of RI localisation in Jurkat T cells; format: cell-based
T2 construct: endogenous in cells; host or cells: Jurkat T cells

Csk-PS364 = experiment: Csk phosphoserine 364 level in forskolin-stimulated T cells; format: cell-based, human; conditions: 25 μM, 12 hours
Method: Antibodies. RI or RII were immunoprecipitated with polyclonal antibodies against human RI or human RII at a 3 μg/ml dilution (Santa Cruz Biotechnology). MEME3 or scrambled peptide was immunoprecipitated with 1.5 μl of anti-GFP antiserum (Invitrogen). Monoclonal (Transduction laboratories) or polyclonal antibodies (Santa Cruz Biotechnology) against human RIα and RIIα were used at a 1 μg ml^−1 or 0.5 μg ml^−1 ilution for Western blotting. Polyclonal antibodies against human Cα (Santa Cruz Biotechnology) and LAT (Upstate Biotechnology) were used at a 0.4 μg ml^−1 and a 1 μg ml^−1 dilution for Western blotting, respectively. Polyclonal antibodies against LckPY505 (Cell Signaling) were used at a 1:1000 dilution and polyclonal antibody raised towards PS364 in Csk were used as previously described (Yaqub et al., Biochem. J., 372: p 271-8, 2003). Polyclonal antibodies against StAR (Affinity BioReagents) were used at 1 μg ml^−1. […]
Peripheral blood T cells were treated with 25 μM M3-Arg11 or mock treated for 12 hours and stimulated with forskolin to activate the PKA-Csk inhibitory pathway. Subsequently, cell lysates were subjected to […], blotting onto a PVDF membranes and the Csk phosphoserine 364 levels were assessed by immunoblotting using phosphospecific antibodies to Csk-PS364 (FIG. 19, upper panel).

Compound	competition of RI-binding to membrane-bound MEME3 (RI (A98S); 500 nM peptide in solution)	affinity for RI compared to that of PDSM (RI (A98S); densitometry of autoradiographs, n=3, higher)	RI binding (RI-32P-overlay, autoradiography) (RI (A98S); peptides on membrane, qualitative)	T cell responses to anti-CD3 ([3H]-thymidine) compared to infected, control-treated mice (mice with MAIDS)	PKA-RIIα in particulate fraction (PKA-RIIα)	displacement of membrane localized RI ([1]; 1 μM)	displacement of membrane localized RI ([1]; 5 μM)	reduction of Csk-PS364 level (Csk-PS364)
CC[C@H](C)[C@H](NC(=O)[C@H](CCC(N)=O)NC(=O)[C@H](CC(=O)O)NC(=O)[C@H](C)NC(=O)[C@H](CC(C)C)NC(=O)[C@H](CCC(N)=O)NC(=O)[C@H](CC(N)=O)NC(=O)[C@H](C)NC(=O)[C@H](Cc1ccc(O)cc1)NC(=O)[C@H](CCC(N)=O)NC(=O)[C@H](CCC(=O)O)NC(=O)[C@@H](N)CC(C)C)C(=O)N[C@H](C(=O)N[C@@H](CCCCN)C(=O)N[C@@H](CCC(=O)O)C(=O)N[C@@H](C)C(=O)N[C@H](C(=O)N[C@@H](CCC(=O)O)C(=O)N[C@@H](CCCCNC(=O)c1ccc2c(c1)C(=O)OC21c2ccc(O)cc2Oc2cc(O)ccc21)C(N)=O)[C@@H](C)O)[C@@H](C)CC [MEME3]	competed the RI-binding	1.9 times	bound with high affinity to RIα					
LEQYANQLADQIIKEATERRRRRRRRRrr [MEME3-Arg11]				significant increase (p=0.013); also recorded: increased more than three-fold	No reduction in PKA-RIIα	some displacement of RI from cell membrane	All membrane localized RI was displaced and was delocalised	70%
